Results reported in patent US20030225152A1, “3-(Arylamino)methylene-1, 3-dihydro-2h-indol-2-ones as kinase inhibitors” (priority 2001, published 2003).
pIC50: −log10 of the molar value.

system: VEGF induced increases in intracellular calcium levels in HUVEC (human umbilical vein endothelial cells); assay: VEGF Stimulated Ca++ Signal in vitro (FLIPR); type: cell-based; conditions: 10 μM, VEGF 5 ng/mL
Experimental: VEGF Stimulated Ca^++ Signal in vitro
Automated FLIPR (Fluorometric Imaging Plate Reader) technology was used to screen for inhibitors of VEGF induced increases in intracellular calcium levels in fluorescent dye loaded endothelial cells. HUVEC (human umbilical vein endothelial cells) (Clonetics) were seeded in 96-well fibronectin coated black-walled plates overnight at 37° C./5%CO2. Cells were loaded with calcium indicator Fluo-4 for 45 minutes at 37° C. Cells were washed 4 times (Original Cell Wash, Labsystems) to remove extracellular dye. Test compounds were reconstituted in 100% DMSO and added to the cells to give a final DMSO concentration of 0.1%. For screening, cells were pre-incubated with test agents for 30 minutes, at a single concentration (10 μM) or at concentrations ranging from 0.01 to 10.0 μM followed by VEGF stimulation (5 ng/mL). Changes in fluorescence at 516 nm were measured simultaneously in all 96 wells using a cooled CCD camera. Data were generated by determining max-min fluorescence levels for unstimulated, stimulated, and drug treated samples. IC50 values for test compounds were calculated from % inhibition of VEGF stimulated responses in the absence of inhibitor.

Row | Compound | VEGF Stimulated Ca^++ signal assay % inhibition @ 10 μM [%]
1 | O=C1Nc2ccccc2C1=CNc1ccc(Oc2ccccc2)cc1 [Example 41, 3-[(4-Phenoxyamino)-methylene]-1,3-dihydro-indol-2-one] | 16.00
2 | 3-[(Chloro-trifluoromethyl-phenylamino)-methylene]-1,3-dihydro-indol-2-one [Example 45] | 50.00
3 | COc1ccc(NC=C2C(=O)Nc3ccc(Cl)cc32)cc1F [Example 105, 5-Chloro-3-[(3-flouro-4-methoxyphenylamino)-methylene]-1,3-dihydro-indol-2-one] | 17.50
4 | O=C1Nc2ccc(Cl)cc2C1=CNc1ccc2c(c1)OCO2 [Example 68, 3-[(3,4-Metylenedioxyphenylamino)-methylene]-5-chloro-1,3-dihydro-indol-2-one] | −2.50
5 | CCOC(=O)c1ccc(NC=C2C(=O)Nc3ccccc32)cc1 [Example 8, 4-[(2-Oxo-1,3-dihydro-indol-3-ylididenemethyl)-amino]-benzoic acid ethyl ester] | 9
6 | 3-[(Bis-trifluoromethyl-phenylamino)-methylene]-1,3-dihydro-indol-2-one [Example 46] | −4.00

same assay, conditions: Homo sapiens, 10 μM, VEGF 5 ng/mL

Row | Compound | inhibition at 10 µM [%]
7 | N#Cc1ccc(NC=C2C(=O)Nc3ccc(Cl)cc32)cc1 [Example 152, 4-[(5-Chloro-2-oxo-1,2-dihydro-indol-3-ylidenemethyl)-amino]-benzonitrile] | 18.7
8 | O=C1Nc2ccccc2C1=CNc1ccc(OC(F)(F)F)cc1 [Example 51, 3-[(4-Trifluoromethoxy-phenylamino)-methylene]-1,3-dihydro-indol-2-one] | 45.5
9 | Cc1cc(C)cc(NC=C2C(=O)Nc3ccc(Cl)cc32)c1 [Example 78, 3-[(3,5-Dimethylphenylamino)-methylene]-5-chloro-1,3-dihydro-indol-2-one] | 8
10 | COc1ccc(NC=C2C(=O)Nc3cccc(C)c32)cc1C(F)(F)F [Example 121, 3-[(4-Methoxy-3-trifluoromethyl-phenylamino)-methylene]-4-methyl-1,3-dihydro-indol-2-one] | 4.86
11 | O=C1Nc2ccccc2C1=CNc1ccc(O)c(Cl)c1 [Example 13, 3-[(3-Chloro-4-hydroxy-phenylamino)-methylene]-1,3-dihydro-indol-2-one] | -12.5
12 | Cc1cc(F)ccc1NC=C1C(=O)Nc2ccccc21 [Example 14, 3-[(4-Fluoro-2-methyl-phenylamino)-methylene]-1,3-dihydro-indol-2-one] | -14
13 | CC(C)(C)c1ccc(NC=C2C(=O)Nc3ccc(Cl)cc32)cc1 [Example 100, 5-Chloro-3-[(4-t-butyl-phenylamino)-methylene]-1,3-dihydro-indol-2-one] | 6
14 | Cc1c(F)cccc1NC=C1C(=O)Nc2ccccc21 [Example 11, 3-[(3-Fluoro-2-methyl-phenylamino)-methylene]-1,3-dihydro-indol-2-one] | -14
15 | CCc1ccccc1NC=C1C(=O)Nc2cccc(C)c21 [Example 127, 3-[(2-Ethyl-phenylamino)-methylene]-4-methyl-1,3-dihydro-indol-2-one] | -11.8
16 | O=C1Nc2ccccc2C1=CNc1ccc(C(=O)O)cc1 [Example 86, 4-[(2-Oxo-1,2-dihydro-indol-3-ylidenemethyl)-amino]-benzoic acid] | 48.5
17 | CC(C)c1ccc(NC=C2C(=O)Nc3ccc(Cl)cc32)cc1 [Example 70, 3-[(4-i-Propylphenylamino)-methylene]-5-chloro-1,3-dihydro-indol-2-one] | 25
18 | Cc1ccc(NC=C2C(=O)Nc3ccccc32)cc1 [Example 18, 3-(p-Tolylamino-methylene)-1,3-dihydro-indol-2-one] | 35.5
19 | COc1ccc(NC=C2C(=O)Nc3ccccc32)cc1C(F)(F)F [Example 55, 3-[(4-Methoxy-3-trifluoromethyl-phenylamino)-methylene]-1,3-dihydro-indol-2-one] | 14.5
20 | CCc1cccc(NC=C2C(=O)Nc3ccc(Cl)cc32)c1 [Example 148, 5-Chloro-3-[(3-ethyl-phenylamino)-methylene]-1,3-dihydro-indol-2-one] | 42.2
21 | Cc1ccc(NC=C2C(=O)Nc3cccc(C)c32)cc1 [Example 62, 4-Methyl-3-(p-tolylamino-methylene)-1,3-dihydro-indol-2-one] | 33
22 | N#CCc1ccc(NC=C2C(=O)Nc3ccccc32)cc1 [Example 30, 3-[(4-Cyanomethylphenylamino)-methylene]-1,3-dihydro-indol-2-one] | 39.5
23 | O=C1Nc2ccc(Cl)cc2C1=CNc1ccc(O)c(C(=O)O)c1 [Example 108, 5-(5-Chloro-2-oxo-1,2-dihydro-indol-3-ylidenemethylamino)-2-hydroxybenzoic acid] | -14.5
24 | O=C1Nc2ccccc2C1CNc1ccc(Br)cc1 (centres unmarked) [Example 3, 3-[(4-Bromo-phenylamino)-methyl]-1,3-dihydro-indol-2-one] | 3.5
25 | O=C1Nc2ccccc2C1=CNc1ccc(Cl)c(C(=O)O)c1 [Example 37, 2-Chloro-5-[(2-oxo-1,2-dihydro-indol-3-ylidenemethyl)-amino]-benzoic acid] | -4
26 | Cc1cccc2c1C(=CNc1ccc(O)c(C(=O)O)c1)C(=O)N2 [Example 118, 2-Hydroxy-5-[(4-methyl-2-oxo-1,2-dihydro-indol-3-ylidenemethyl)-amino]-benzoic acid] | -27
27 | O=C1Nc2ccccc2C1=CNc1ccccc1 [Example 1, 3-Phenylaminomethylene-1,3-dihydro-indol-2-one] | 92
28 | Cc1ccc(NC=C2C(=O)Nc3cccc(C)c32)cc1C [Example 95, 3-[(3,4-Dimethyl-phenylamino)-methylene]-4-methyl-1,3-dihydro-indol-2-one] | 14
29 | Cc1ccc(NC=C2C(=O)Nc3ccc(Cl)cc32)cc1O [Example 71, 3-[(3-Hydroxy-4-methylphenylamino)-methylene]-5-chloro-1,3-dihydro-indol-2-one] | 38.5
30 | Cc1cc(NC=C2C(=O)Nc3ccc(Cl)cc32)ccc1C(C)C [Example 112, 5-Chloro-3-[(4-i-propyl-3-methylphenylamino)-methylene]-1,3-dihydro-indol-2-one] | 10.5
31 | Cc1cc(C)cc(NC=C2C(=O)Nc3cccc(C)c32)c1 [Example 63, 3-[(3,5-Dimethyl-phenylamino)-methylene]-4-methyl-1,3-dihydro-indol-2-one] | -14.5
32 | Cc1cccc2c1C(=CNc1ccc(C(N)=O)cc1)C(=O)N2 [Example 129, 4-[(4-Methyl-2-oxo-1,2-dihydro-indol-3-ylidenemethyl)-amino]-benzamide] | 99
33 | O=C1Nc2ccccc2C1CNc1cccc(Br)c1 (centres unmarked) [Example 4, 3-[(3-Bromo-phenylamino)-methyl]-1,3-dihydro-indol-2-one] | 16.5
34 | Cc1cccc2c1C(=CNc1ccc(OC(F)(F)F)cc1)C(=O)N2 [Example 120, 4-Methyl-3-[(4-trifluoromethoxy-phenylamino)-methylene]-1,3-dihydro-indol-2-one] | 12.7
35 | COc1cc(NC=C2C(=O)Nc3ccc(Cl)cc32)c(OC)cc1Cl [Example 104, 5-Chloro-3-[(4-chloro-2,5-dimethoxy-phenylamino)-methylene]-1,3-dihydro-indol-2-one] | -14.5

same assay, conditions: Homo sapiens, 0.01 to 10.0 μM, VEGF 5 ng/mL

Row | Compound | pIC50
36 | O=C1Nc2cccc(F)c2C1=CNc1ccc(CCCCN2CCOCC2)cc1 [Example 315, 4-Fluoro-3-{[4-(4-morpholin-4-yl-butyl)-phenylamino]-methylene}-1,3-dihydro-indol-2-one] | 5.81
37 | CN1CCN(CCCNc2ccc(NC=C3C(=O)Nc4ccccc43)cc2)CC1 [Example 302, 3-({4-[3-(4-Methyl-piperazin-1-yl)-propylamino]-phenylamino}-methylene)-1,3-dihydro-indol-2-one] | 6.15
38 | Cc1cccc2c1C(=CNc1ccc(CCCCN3CCCCC3)cc1)C(=O)N2 [Example 320, 4-Methyl-3-{[4-(4-piperidin-1-yl-butyl)-phenylamino]-methylene}-1,3-dihydro-indol-2-one] | 6.48
39 | O=C1Nc2ccccc2C1=CNc1ccc(CCCCN2CCOCC2)cc1 [Example 312, 3-{[4-(4-Morpholin-4-yl-butyl)-phenylamino]-methylene}-1,3-dihydro-indol-2-one] | 6.27
40 | O=C1Nc2ccccc2C1=CNc1ccccc1 [Example 1, 3-Phenylaminomethylene-1,3-dihydro-indol-2-one] | 5.39
41 | CN1CCN(CCCNc2ccc(NC=C3C(=O)Nc4cc(F)ccc43)cc2)CC1 [Example 304, 6-Fluoro-3-({4-[3-(4-methyl-piperazin-1-yl)-propylamino]-phenylamino}-methylene)-1,3-dihydro-indol-2-one] | 6.92
42 | Cc1cccc2c1C(=CNc1ccc(C(N)=O)cc1)C(=O)N2 [Example 129, 4-[(4-Methyl-2-oxo-1,2-dihydro-indol-3-ylidenemethyl)-amino]-benzamide] | 5.90
43 | O=C1Nc2ccc(F)cc2C1=CNc1ccc(CCCCN2CCOCC2)cc1 [Example 316, 5-Fluoro-3-{[4-(4-morpholin-4-yl-butyl)-phenylamino]-methylene}-1,3-dihydro-indol-2-one] | 6.23
44 | O=C1Nc2ccc(Cl)cc2C1=CNc1ccc(CCCCN2CCCCC2)cc1 [Example 319, 5-Chloro-3-{[4-(4-piperidin-1-yl-butyl)-phenylamino]-methylene}-1,3-dihydro-indol-2-one] | 6.02
